Experimental data taken from US20150175599A1, “FAAH Inhibitors” (Ironwood Pharmaceuticals, Inc., priority 2010, published 2015).

The compounds below were run against T1, FAAH (Rattus norvegicus, UniProt P97612) (assay: FAAH inhibition, rat brain membrane homogenate assay). Details: rat brain homogenate; average activity; read-out: Rat Brain Extract FAAH IC50.
T1 construct: For the assay of FAAH activity in rat brain membrane (RBM) homogenates; tissue Charles River (animals); host or cells: rat whole brain, membrane fraction
T1 sequence (P97612 1-579): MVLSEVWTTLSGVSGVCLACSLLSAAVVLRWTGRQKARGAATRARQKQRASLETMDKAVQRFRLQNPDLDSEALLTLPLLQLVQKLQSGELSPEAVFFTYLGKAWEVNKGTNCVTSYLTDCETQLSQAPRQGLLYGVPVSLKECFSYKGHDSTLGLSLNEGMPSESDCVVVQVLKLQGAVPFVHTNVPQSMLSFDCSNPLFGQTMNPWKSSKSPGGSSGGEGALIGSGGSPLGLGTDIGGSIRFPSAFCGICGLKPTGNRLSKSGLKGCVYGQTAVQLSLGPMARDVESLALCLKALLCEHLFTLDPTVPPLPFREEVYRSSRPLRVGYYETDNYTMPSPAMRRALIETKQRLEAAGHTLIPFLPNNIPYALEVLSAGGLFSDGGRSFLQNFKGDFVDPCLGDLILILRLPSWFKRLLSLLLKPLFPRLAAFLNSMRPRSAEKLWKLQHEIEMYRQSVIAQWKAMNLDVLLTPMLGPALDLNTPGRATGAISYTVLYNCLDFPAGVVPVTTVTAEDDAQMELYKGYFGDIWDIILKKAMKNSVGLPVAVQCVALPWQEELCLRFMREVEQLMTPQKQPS
Assay type: biochemical
Procedure: Adult rats (Charles River CD strain, female, 200 g) were anaesthetized with isofluorane and rapidly decapitated. Each brain was quickly removed and chilled in tubes (3 brains per tube) on ice. About 25 mL of “homogenization buffer” (20 mM HEPES buffer, pH 7.0, with 1 mM MgCl2) was added to 15 to 20 g of brain. The brains were homogenized on ice for 1 minute using an Omni GLH homogenizer (Omni International, Marietta, Ga.). The homogenates were then transferred to three centrifuge tubes and centrifuged at 36,500 g for 20 minutes at 4° C. The supernatant was discarded and each pellet was re-suspended in 25 mL homogenization buffer. The re-suspended material was again centrifuged (36,500 g, 20 minutes at 4° C.). Pellets were combined by re-suspension in 10 mL of homogenization buffer and incubated in a 37° C. water bath for 15 minutes. The tubes were then placed on ice for 5 minutes followed by centrifugation at 36,500 g for 20 minutes at 4° C. The supernatant was discarded and the membrane pellets were then re-suspended in 40 mL of “re-suspension buffer” (50 mM Tris-HCl buffer, pH 7.4, containing 1 mM EDTA and 3 mM MgCl2). A Bradford Protein assay was performed to determine protein concentration. The protein was aliquotted into screw cap Cryo tubes each containing −400 μL, flash-frozen in liquid nitrogen and stored at −80° C. until used for the assay. A similar protocol was used to obtain brain membrane homogenates from mice
FAAH activity was assayed in the respective homogenates described herein (Rat brain, Mouse brain or Human brain) with certain of the exemplary compounds described above using a modification of the method of Omeir et al. (1995 Life Sci. 56:1999) and Fowler et al. (1997 J. Pharmacol. Exp. Ther. 283:729). For the assay of FAAH activity in rat brain membrane (RBM) homogenates, RBM homogenates (7 μg protein in 20 μL final volume of 10 mM Tris pH 6.5) were mixed with 180 μL of a mixture of the following: […] unlabelled anandamide (AEA), 0.03 Ci radio labeled anandamide [ethanolamine 1-^3H](40-60 Ci/mmol; product number ART-626, American Radiolabelled Chemicals, St. Louis, Mo.), 1 mg/mL Bovine Serum Albumin (fatty acid-free BSA, electrophoresis grade, Sigma, St. Louis, Mo.), 10 mM Tris-HCl (pH 6.5), and 1 mM EDTA in the presence and absence of test compounds (vehicle was DMSO at a final concentration of 1%) and incubated for 10 minutes at 37° C. Samples were placed on ice to terminate the reactions.
The ^3H-ethanolamine product and un-reacted ^3H-anandamide substrate were then separated by either: (1) using chloroform/methanol extraction or (2) passing the reaction mixture through a glass fiber filter containing activated charcoal. Samples were extracted with chloroform/methanol by adding 0.4 mL of chloroform/methanol (1:1 v/v), vigorously mixing the samples, and separating the aqueous and organic phases by centrifugation. Radioactivity (corresponding to FAAH-catalyzed breakdown of ^3H-anandamide) found in aliquots (0.2 mL) of the aqueous phase was determined by liquid scintillation counting with quench correction. IC50 values were determined as described by Jonsson et al. (2001 Br. J Pharmacol. 133:1263). Alternatively, reactions were purified using a modification of the solid-phase extraction method described by Wilson et al (2003 Anal. Biochem. 318: 270). This method was modified as follows: after reactions were incubated at 37° C. for 10 minutes and chilled on ice, the reaction mixtures were acidified by adding 10 μL of sodium phosphate solution[0.5M (pH 2.0)]. Next, 90 μL aliquots of the acidified reaction mixtures were applied to activated charcoal (that had been previously washed with methanol as described by Wilson et al. (supra)) containing 80 μL of water on top of a glass fiber filter, centrifuged, and the radioactivity in the eluate was counted as described previously by Wilson et al. (supra). […]

Row | Structure (SMILES) | IC50 [nM]
1 | COc1cc(NC(=O)C(=O)c2c(C)n(Cc3ccc(Cl)cc3)c3ccc(OC(C)=O)cc23)ccn1 [Compound 1, 1-(4-chlorobenzyl)-3-(2-(2-methoxypyridin-4-ylamino)-2-oxoacetyl)-2-methyl-1H-indol-5-yl acetate] | < 100
2 | COc1cc(NC(=O)C(=O)c2c(C)n(Cc3ccc(Cl)cc3)c3ccc(O)cc23)ccn1 [Compound 2, 2-(1-(4-chlorobenzyl)-5-hydroxy-2-methyl-1H-indol-3-yl)-N-(2-methoxypyridin-4-yl)-2-oxoacetamide] | < 100
3 | COc1cc(NC(=O)C(=O)c2c(C)n(Cc3ccc(Cl)cc3)c3ccc(C(C)=O)cc23)ccn1 [Compound 5, 2-(5-acetyl-1-(4-chlorobenzyl)-2-methyl-1H-indol-3-yl)-N-(2-methoxypyridin-4-yl)-2-oxoacetamide] | < 100
4 | COc1cc(NC(=O)C(=O)c2c(C)n(Cc3ccc(Cl)cc3)c3ccc(C(=O)N(C)C)cc23)ccn1 [Compound 6, 1-(4-chlorobenzyl)-3-(2-(2-methoxypyridin-4-ylamino)-2-oxoacetyl)-N,N,2-trimethyl-1H-indole-5-carboxamide] | 100 to 1000
5 | COc1cc(NC(=O)C(=O)c2c(C)n(Cc3ccc(Cl)cc3)c3ccc(N(C)C(=O)OC(C)(C)C)cc23)ccn1 [Compound 7, Tert-butyl(1-(4-chlorobenzyl)-3-(2-((2-methoxypyridin-4-yl)amino)-2-oxoacetyl)-2-methyl-1H-indol-5-yl)(methyl)carbamate] | 100 to 1000
6 | COc1cc(NC(=O)C(=O)c2c(C)n(Cc3ccc(Cl)cc3)c3ccc(CO)cc23)ccn1 [Compound 8, 2-(1-(4-chlorobenzyl)-5-(hydroxymethyl)-2-methyl-1H-indol-3-yl)-N-(2-methoxypyridin-4-yl)-2-oxoacetamide] | < 100
7 | CNc1ccc2c(c1)c(C(=O)C(=O)Nc1ccnc(OC)c1)c(C)n2Cc1ccc(Cl)cc1 [Compound 9, 2-(1-(4-chlorobenzyl)-2-methyl-5-(methylamino)-1H-indol-3-yl)-N-(2-methoxypyridin-4-yl)-2-oxoacetamide] | < 100
8 | COc1cc(NC(=O)C(=O)c2c(C)n(Cc3ccc(Cl)cc3)c3ccc(COC(C)=O)cc23)ccn1 [Compound 10, (1-(4-chlorobenzyl)-3-(2-(2-methoxypyridin-4-ylamino)-2-oxoacetyl)-2-methyl-1H-indol-5-yl)methyl acetate] | < 100
9 | COCc1ccc2c(c1)c(C(=O)C(=O)Nc1ccnc(OC)c1)c(C)n2Cc1ccc(Cl)cc1 [Compound 11, 2-(1-(4-chlorobenzyl)-5-(methoxymethyl)-2-methyl-1H-indol-3-yl)-N-(2-methoxypyridin-4-yl)-2-oxoacetamide] | < 100
10 | COc1ccc2c(c1)c(C(=O)C(=O)Nc1ccnc(OC)c1)c(C)n2Cc1cnc(Cl)cn1 [Compound 12, 2-(1-((5-chloropyrazin-2-yl)methyl)-5-methoxy-2-methyl-1H-indol-3-yl)-N-(2-methoxypyridin-4-yl)-2-oxoacetamide] | < 100
11 | COc1cc(NC(=O)C(=O)c2c(C)n(Cc3ncc(Cl)cc3Cl)c3cc(F)c(OC)cc23)ccn1 [Compound 13, 2-(1-((3,5-dichloropyridin-2-yl)methyl)-6-fluoro-5-methoxy-2-methyl-1H-indol-3-yl)-N-(2-methoxypyridin-4-yl)-2-oxoacetamide] | < 100
12 | COc1cc(NC(=O)C(=O)c2c(C)n(Cc3ccc(F)cc3F)c3cc(F)c(OC)cc23)ccn1 [Compound 14, 2-(1-(2,4-difluorobenzyl)-6-fluoro-5-methoxy-2-methyl-1H-indol-3-yl)-N-(2-methoxypyridin-4-yl)-2-oxoacetamide] | < 100
13 | COc1cc(NC(=O)C(=O)c2c(C)n(Cc3ccc(Cl)cc3)c3ccc(C#N)cc23)ccn1 [Compound 15, 2-(1-(4-chlorobenzyl)-5-cyano-2-methyl-1H-indol-3-yl)-N-(2-methoxypyridin-4-yl)-2-oxoacetamide] | < 100
14 | COc1ccc2c(c1)c(C(=O)C(=O)Nc1ccnc(OC)c1)c(C)n2Cc1ccncc1 [Compound 16, 2-(5-methoxy-2-methyl-1-(pyridin-4-ylmethyl)-1H-indol-3-yl)-N-(2-methoxypyridin-4-yl)-2-oxoacetamide] | 100 to 1000
15 | COc1cc(NC(=O)C(=O)c2c(C)n(Cc3ccc(Cl)cc3)c3ccc(N(C)C)cc23)ccn1 [Compound 17, 2-(1-(4-chlorobenzyl)-5-(dimethylamino)-2-methyl-1H-indol-3-yl)-N-(2-methoxypyridin-4-yl)-2-oxoacetamide] | < 100
16 | COc1cc(NC(=O)C(=O)c2c(C)n(Cc3ccc(Cl)cc3)c3ccc(Br)cc23)ccn1 [Compound 18, 2-(5-bromo-1-(4-chlorobenzyl)-2-methyl-1H-indol-3-yl)-N-(2-methoxypyridin-4-yl)-2-oxoacetamide] | < 100
17 | COc1cc(NC(=O)C(=O)c2c(C)n(Cc3ccc(Cl)cc3)c3ccc([N+](=O)[O-])cc23)ccn1 [Compound 19, 2-(1-(4-chlorobenzyl)-2-methyl-5-nitro-1H-indol-3-yl)-N-(2-methoxypyridin-4-yl)-2-oxoacetamide] | < 100
18 | COc1cc(NC(=O)C(=O)c2c(C)n(Cc3ccc(Cl)cc3)c3ccc(N)cc23)ccn1 [Compound 20, 2-(5-amino-1-(4-chlorobenzyl)-2-methyl-1H-indol-3-yl)-N-(2-methoxypyridin-4-yl)-2-oxoacetamide] | < 100
19 | COc1cc(NC(=O)C(=O)c2c(C)n(Cc3ccc(Cl)cc3)c3ccc(C(F)(F)F)cc23)ccn1 [Compound 21, 2-(1-(4-chlorobenzyl)-2-methyl-5-(trifluoromethyl)-1H-indol-3-yl)-N-(2-methoxypyridin-4-yl)-2-oxoacetamide] | < 100
20 | COc1cc(NC(=O)C(=O)c2c(C)n(Cc3ccc(Cl)cc3)c3ccc(NC(C)=O)cc23)ccn1 [Compound 22, 2-(5-acetamido-1-(4-chlorobenzyl)-2-methyl-1H-indol-3-yl)-N-(2-methoxypyridin-4-yl)-2-oxoacetamide] | 100 to 1000
21 | COc1cc(NC(=O)C(=O)c2c(C)n(Cc3ccc(Cl)cc3)c3ccc(OC(F)(F)F)cc23)ccn1 [Compound 23, 2-(1-(4-chlorobenzyl)-2-methyl-5-(trifluoromethoxy)-1H-indol-3-yl)-N-(2-methoxypyridin-4-yl)-2-oxoacetamide] | < 100
22 | CCN(CC)c1ccc2c(c1)c(C(=O)C(=O)Nc1ccnc(OC)c1)c(C)n2Cc1ccc(Cl)cc1 [Compound 24, 2-(1-(4-chlorobenzyl)-5-(diethylamino)-2-methyl-1H-indol-3-yl)-N-(2-methoxypyridin-4-yl)-2-oxoacetamide] | 100 to 1000
